Assay results published in patent publication US9732047B2, “N-alkoxyamide conjugates as imaging agents” (Lantheus Medical Imaging, Inc., priority 2008, dated 2017).

Each compound was assayed on Aorta bearing atherosclerotic plaque (assay: Ex-vivo blood vessel binding assay). Conditions: 153Gd-labeled compound 0.135 μCi in PBS, 2 h at 37° C., plaque-bearing rabbit aorta sections; percentage of initial activity.
Set-up: species or system New Zealand white rabbits
Protocol: Aorta bearing atherosclerotic plaque was obtained from New Zealand white rabbits that were balloon stripped along the abdominal aorta and placed on a high fat diet (0.5% cholesterol) for 16-22 weeks. Vascular injury was produced with a 4-F Fogarty catheter along the abdominal aorta and right iliofemoral artery. This procedure generates an accelerated complex lesion development with a lipid rich core covered by a fibrous cap in rabbits. Harvested aorta sections (0.5 cm) were incubated with 0.135 μCi of ^153Gd-labeled compound diluted in phosphate buffered saline (450 μL) for 2 h at 37° C. The supernatant was removed and analyzed by HPLC to assay compound stability. The tissue section was then washed with phosphate buffered saline (3×10 mL), then resuspended (10 mL) and incubated at 37° C. an additional 1 h. The supernatant was then removed, the washing process repeated and the tissue finally counted on a gamma counter. The amount of compound bound to the tissue was determined as a percentage of the initial activity according to the following formula: […]

Q: Which “% bound” value does the source give for `CC(C)C[C@@H]([NH3+])C(=O)NOCCCCCCNC(=O)CN(CCN(CC(=O)[O-])CC(=O)[O-])CCN(CC(=O)[O-])CC(=O)[O-].[153Gd+3]` [Example 40] here?
A: The value was 7.2%.

Q: With `CC(C)C[C@@H]([NH3+])C(=O)NOc1ccc(CNC(=O)CN(CCN(CC(=O)[O-])CC(=O)[O-])CCN(CC(=O)[O-])CC(=O)[O-])cc1.[153Gd+3]` [Example 46] as the compound, how does the “% bound” value read?
A: Its value is 0.9%.

Q: Which “% bound” value does the source give for `[153Gd+3].[NH3+][C@H](Cc1ccc(O)cc1)C(=O)NOCc1ccc(CNC(=O)CN(CCN(CC(=O)[O-])CC(=O)[O-])CCN(CC(=O)[O-])CC(=O)[O-])cc1` [Example 63] here?
A: The value was 11.7%.

Q: For `[153Gd+3].[NH3+][C@H](Cc1cc2ccccc2[nH]1)C(=O)NOCc1ccc(CNC(=O)CN(CCN(CC(=O)[O-])CC(=O)[O-])CCN(CC(=O)[O-])CC(=O)[O-])cc1` [Example 61], which “% bound” value is on record?
A: Its value is 19.9%.

Q: How did the “% bound” value turn out when `[153Gd+3].[NH3+][C@@H](CCc1ccccc1)C(=O)NOCc1ccc(CNC(=O)CN(CCN(CC(=O)[O-])CC(=O)[O-])CCN(CC(=O)[O-])CC(=O)[O-])cc1` [Example 39] was run?
A: The value was 15.8%.

Q: With `CONC(=O)C(CCc1ccccc1)NCc1ccc(CNC(=O)CN2CCN(CC(=O)[O-])CCN(CC(=O)[O-])CCN(CC(=O)[O-])CC2)cc1.[153Gd+3]` (stereo not shown) [Example 52] as the compound, how does the “% bound” value read?
A: The value was 6.9%.

Q: How did the “% bound” value turn out when `[153Gd+3].[NH3+][C@H](Cc1ccc(-c2ccccc2)cc1)C(=O)NOCCCCCCNC(=O)CN(CCN(CC(=O)[O-])CC(=O)[O-])CCN(CC(=O)[O-])CC(=O)[O-]` [Example 41] was run?
A: Its value is 28.7%.

Each compound was assayed on aorta (assay: not given). Conditions: ApoE mice on high-fat diet 35-42 weeks, 0.3-0.4 mCi/kg bolus via tail vein, 60 min post injection.
Protocol: The apolipoprotein E (ApoE) knockout mouse is a model of hypercholesterolemia that develops atherosclerotic lesions in the brachiocephalic artery, the aortic arch and the abdominal aorta. Mice were fed a high-fat diet to accelerate plaque formation and compounds were tested in the mice between 35-42 weeks on diet. Test compounds were administered at 0.3-0.4 mCi/kg to anesthetized mice in a single, bolus injection via the tail vein. Blood samples were collected via the tail between 0-30 min post injection for pharmacokinetic analysis and mice were euthanized by CO2 at 60 min for tissue harvesting. The aorta was first flushed with saline through the left ventricle exiting via the femoral vein then removed from the heart to the renal bifurcation; additional biological samples were also collected (blood, muscle, liver, kidney, bile, urine, heart, femur, reproductive organ, lung, spleen and innominate artery). All samples were weighed and assayed for radioactivity; uptake is expressed as a percentage of injected dose per gram of tissue (% ID/g).

Q: How did the “aorta uptake (% ID/g)” value turn out when `CC(C)C[C@@H]([NH3+])C(=O)NOCCCCCCNC(=O)CN(CCN(CC(=O)[O-])CC(=O)[O-])CCN(CC(=O)[O-])CC(=O)[O-].[153Gd+3]` [Example 40] was run?
A: The value was 3.6 ± 0.3 % ID/g.

Q: For `CC(C)C[C@@H]([NH3+])C(=O)NOc1ccc(CNC(=O)CN(CCN(CC(=O)[O-])CC(=O)[O-])CCN(CC(=O)[O-])CC(=O)[O-])cc1.[153Gd+3]` [Example 46], which “aorta uptake (% ID/g)” value is on record?
A: The value was 0.9 ± 0.2 % ID/g.

Q: How did the “aorta uptake (% ID/g)” value turn out when `[153Gd+3].[NH3+][C@H](Cc1ccc(O)cc1)C(=O)NOCc1ccc(CNC(=O)CN(CCN(CC(=O)[O-])CC(=O)[O-])CCN(CC(=O)[O-])CC(=O)[O-])cc1` [Example 63] was run?
A: Its value is 8.7 ± 0.4 % ID/g.

Q: How did the “aorta uptake (% ID/g)” value turn out when `O=C([O-])CN1CCN(CC(=O)[O-])CCN(CC(=O)NCc2ccc(CNC(CCc3ccccc3)C(=O)NOCc3ccccc3)cc2)CCN(CC(=O)[O-])CC1.[153Gd+3]` (stereo not shown) [Example 53] was run?
A: The value was 1.5 ± 0.1 % ID/g.

Q: For `[153Gd+3].[NH3+][C@H](Cc1cc2ccccc2[nH]1)C(=O)NOCc1ccc(CNC(=O)CN(CCN(CC(=O)[O-])CC(=O)[O-])CCN(CC(=O)[O-])CC(=O)[O-])cc1` [Example 61], which “aorta uptake (% ID/g)” value is on record?
A: The value was 19.3 ± 0.2 % ID/g.

Q: For `[153Gd+3].[NH3+][C@@H](CCc1ccccc1)C(=O)NOCc1ccc(CNC(=O)CN(CCN(CC(=O)[O-])CC(=O)[O-])CCN(CC(=O)[O-])CC(=O)[O-])cc1` [Example 39], which “aorta uptake (% ID/g)” value is on record?
A: Its value is 6.1 ± 0.4 % ID/g.

Q: How did the “aorta uptake (% ID/g)” value turn out when `CONC(=O)C(CCc1ccccc1)NCc1ccc(CNC(=O)CN2CCN(CC(=O)[O-])CCN(CC(=O)[O-])CCN(CC(=O)[O-])CC2)cc1.[153Gd+3]` (stereo not shown) [Example 52] was run?
A: Its value is 6.1 ± 1.2 % ID/g.

Q: With `[153Gd+3].[NH3+][C@H](Cc1ccc(-c2ccccc2)cc1)C(=O)NOCCCCCCNC(=O)CN(CCN(CC(=O)[O-])CC(=O)[O-])CCN(CC(=O)[O-])CC(=O)[O-]` [Example 41] as the compound, how does the “aorta uptake (% ID/g)” value read?
A: The value was 2.0 ± 0.1 % ID/g.

Q: With `N[C@H](Cc1ccc(CNC(=O)CN2CCN(CC(=O)[O-])CCN(CC(=O)[O-])CCN(CC(=O)[O-])CC2)cc1)C(=O)NOCc1ccccc1.[153Gd+3]` [Example 55] as the compound, how does the “aorta uptake (% ID/g)” value read?
A: Its value is 3.0 ± 2.3 % ID/g.

Q: Which “aorta uptake (% ID/g)” value does the source give for `CC(C)C[C@@H]([NH3+])C(=O)NOCc1ccc(CNC(=O)CN(CCN(CC(=O)[O-])CC(=O)[O-])CCN(CC(=O)[O-])CC(=O)[O-])cc1.[153Gd+3]` [Example 56] here?
A: The value was 8.5 ± 1.8 % ID/g.

Q: `CONC(=O)[C@H](N)Cc1ccc(CNC(=O)CN2CCN(CC(=O)[O-])CCN(CC(=O)[O-])CCN(CC(=O)[O-])CC2)cc1.[153Gd+3]` [Example 54] was tested. Which “aorta uptake (% ID/g)” value did it give?
A: Its value is 2.5 ± 0.5 % ID/g.

Same assay, conditions: ApoE mice, 60 min post injection, uptake ratio

Q: With `CC(C)C[C@@H]([NH3+])C(=O)NOCCCCCCNC(=O)CN(CCN(CC(=O)[O-])CC(=O)[O-])CCN(CC(=O)[O-])CC(=O)[O-].[153Gd+3]` [Example 40] as the compound, how does the “aorta:blood” value read?
A: Its value is 3.4.

Q: What about the “aorta:heart” value of the same compound?
A: Its value is 8.4.

Q: With `CC(C)C[C@@H]([NH3+])C(=O)NOc1ccc(CNC(=O)CN(CCN(CC(=O)[O-])CC(=O)[O-])CCN(CC(=O)[O-])CC(=O)[O-])cc1.[153Gd+3]` [Example 46] as the compound, how does the “aorta:blood” value read?
A: The value was 1.1.

Q: What about the “aorta:heart” value of the same compound?
A: The value was 4.9.

Q: With `[153Gd+3].[NH3+][C@H](Cc1ccc(O)cc1)C(=O)NOCc1ccc(CNC(=O)CN(CCN(CC(=O)[O-])CC(=O)[O-])CCN(CC(=O)[O-])CC(=O)[O-])cc1` [Example 63] as the compound, how does the “aorta:blood” value read?
A: Its value is 6.0.

Q: What about the “aorta:heart” value of the same compound?
A: Its value is 13.0.

Q: For `O=C([O-])CN1CCN(CC(=O)[O-])CCN(CC(=O)NCc2ccc(CNC(CCc3ccccc3)C(=O)NOCc3ccccc3)cc2)CCN(CC(=O)[O-])CC1.[153Gd+3]` (stereo not shown) [Example 53], which “aorta:blood” value is on record?
A: The value was 0.8.

Q: What about the “aorta:heart” value of the same compound?
A: Its value is 4.2.

Q: Which results are given for `[153Gd+3].[NH3+][C@H](Cc1cc2ccccc2[nH]1)C(=O)NOCc1ccc(CNC(=O)CN(CCN(CC(=O)[O-])CC(=O)[O-])CCN(CC(=O)[O-])CC(=O)[O-])cc1` [Example 61]?
A: aorta:blood: 10.9; aorta:heart: 20.4

Q: With `[153Gd+3].[NH3+][C@@H](CCc1ccccc1)C(=O)NOCc1ccc(CNC(=O)CN(CCN(CC(=O)[O-])CC(=O)[O-])CCN(CC(=O)[O-])CC(=O)[O-])cc1` [Example 39] as the compound, how does the “aorta:blood” value read?
A: Its value is 11.4.

Q: And the “aorta:heart” value?
A: Its value is 13.6.

Q: For `CONC(=O)C(CCc1ccccc1)NCc1ccc(CNC(=O)CN2CCN(CC(=O)[O-])CCN(CC(=O)[O-])CCN(CC(=O)[O-])CC2)cc1.[153Gd+3]` (stereo not shown) [Example 52], which “aorta:blood” value is on record?
A: The value was 2.0.

Q: What about the “aorta:heart” value of the same compound?
A: The value was 9.2.

Q: With `[153Gd+3].[NH3+][C@H](Cc1ccc(-c2ccccc2)cc1)C(=O)NOCCCCCCNC(=O)CN(CCN(CC(=O)[O-])CC(=O)[O-])CCN(CC(=O)[O-])CC(=O)[O-]` [Example 41] as the compound, how does the “aorta:blood” value read?
A: Its value is 7.2.

Q: And the “aorta:heart” value?
A: The value was 20.4.

Q: What does the source list for `N[C@H](Cc1ccc(CNC(=O)CN2CCN(CC(=O)[O-])CCN(CC(=O)[O-])CCN(CC(=O)[O-])CC2)cc1)C(=O)NOCc1ccccc1.[153Gd+3]` [Example 55]?
A: aorta:blood: 1.0; aorta:heart: 8.8

Q: Which results are given for `CC(C)C[C@@H]([NH3+])C(=O)NOCc1ccc(CNC(=O)CN(CCN(CC(=O)[O-])CC(=O)[O-])CCN(CC(=O)[O-])CC(=O)[O-])cc1.[153Gd+3]` [Example 56]?
A: aorta:blood: 5.5; aorta:heart: 21.2

Q: Which “aorta:blood” value does the source give for `CONC(=O)[C@H](N)Cc1ccc(CNC(=O)CN2CCN(CC(=O)[O-])CCN(CC(=O)[O-])CCN(CC(=O)[O-])CC2)cc1.[153Gd+3]` [Example 54] here?
A: The value was 1.2.

Q: What about the “aorta:heart” value of the same compound?
A: Its value is 5.3.
